Laboratory results: patent US20130315843A1, “COMPOSITION FOR REDUCTION OF TRPA1 AND TRPV1 SENSATIONS” (priority 2012, published 2013)
Where two headings read alike, the source gives them in different places. Each block holds one compound with its values, some of them ahead of it.

Key:
human TRPV1 [1] = target: T1, human TRPV1 (Homo sapiens, UniProt Q8NER1); experiment: FLIPR Ca2+ assay, reduction of hydrogen peroxide activation of TRPV1; format: cell-based; parameters: expressed in transfected cells; conditions: for % Reduction of Hydrogen Peroxide TRPV1 Activation / inhibition at 400 µM: antagonist 400 μM against 500 μM hydrogen peroxide; for Ca++ counts: with compound; for inhibition at 100 µM: antagonist 100 μM against 500 μM hydrogen peroxide
T1 sequence (Q8NER1 whole entry): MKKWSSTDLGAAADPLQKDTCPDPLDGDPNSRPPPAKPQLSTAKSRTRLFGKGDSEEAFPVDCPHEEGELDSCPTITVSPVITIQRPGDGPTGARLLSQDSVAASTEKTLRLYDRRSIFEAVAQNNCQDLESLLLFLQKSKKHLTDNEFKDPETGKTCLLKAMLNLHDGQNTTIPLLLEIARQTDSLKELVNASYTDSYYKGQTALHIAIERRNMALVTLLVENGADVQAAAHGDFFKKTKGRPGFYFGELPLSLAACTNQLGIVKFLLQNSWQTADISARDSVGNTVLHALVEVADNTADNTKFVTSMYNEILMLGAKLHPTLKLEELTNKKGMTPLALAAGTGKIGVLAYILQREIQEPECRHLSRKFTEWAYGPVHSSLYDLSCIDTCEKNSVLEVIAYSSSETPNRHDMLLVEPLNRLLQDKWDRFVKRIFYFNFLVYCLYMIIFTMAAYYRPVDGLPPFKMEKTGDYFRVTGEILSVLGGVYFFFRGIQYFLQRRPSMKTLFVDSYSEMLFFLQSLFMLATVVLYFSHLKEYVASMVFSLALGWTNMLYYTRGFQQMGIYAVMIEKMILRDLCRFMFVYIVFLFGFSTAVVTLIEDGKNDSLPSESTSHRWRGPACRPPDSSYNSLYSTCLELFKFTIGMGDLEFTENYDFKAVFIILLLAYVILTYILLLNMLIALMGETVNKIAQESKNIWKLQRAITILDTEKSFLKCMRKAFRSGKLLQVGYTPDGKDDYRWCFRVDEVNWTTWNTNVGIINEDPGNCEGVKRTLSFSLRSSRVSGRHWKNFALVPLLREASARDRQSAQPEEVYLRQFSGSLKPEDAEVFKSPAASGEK
Description: (§1) Cells were detached with addition of 10 ml of PBS (phosphate buffered saline) by hand shaking gently. Cells were transferred to a 50 ml tube and centrifuged at 850 rpm for 3 minutes to remove PBS.
The pelleted cells were re-suspended in 10 ml assay buffer and 90 μl aliquots (˜50,000 cells) per well delivered to a 96-well assay plate containing 10 μl of test compounds (1 mM in assay buffer, […]) or buffer control and incubated at room temperature for 30 minutes.

human TRPV1 [2] = target: T1, human TRPV1; experiment: FLIPR Ca2+ assay, reduction of capsaicin activation of TRPV1; format: cell-based; parameters: expressed in transfected cells; conditions: for Ca++ counts: with compound
Description: as §1
(§2) The pelleted cells were re-suspended in 10 ml assay buffer and 90 μl aliquots (˜50,000 cells) per well delivered to a 96-well assay plate containing 10 μl of test compounds ([…]) or buffer control and incubated at room temperature for 30 minutes.

human TRPA1 [3] = target: T2, human TRPA1 (Homo sapiens, UniProt O75762); experiment: FLIPR Ca2+ assay, reduction of hydrogen peroxide activation of TRPA1; format: cell-based; parameters: expressed in transfected cells
T2 sequence (O75762 whole entry): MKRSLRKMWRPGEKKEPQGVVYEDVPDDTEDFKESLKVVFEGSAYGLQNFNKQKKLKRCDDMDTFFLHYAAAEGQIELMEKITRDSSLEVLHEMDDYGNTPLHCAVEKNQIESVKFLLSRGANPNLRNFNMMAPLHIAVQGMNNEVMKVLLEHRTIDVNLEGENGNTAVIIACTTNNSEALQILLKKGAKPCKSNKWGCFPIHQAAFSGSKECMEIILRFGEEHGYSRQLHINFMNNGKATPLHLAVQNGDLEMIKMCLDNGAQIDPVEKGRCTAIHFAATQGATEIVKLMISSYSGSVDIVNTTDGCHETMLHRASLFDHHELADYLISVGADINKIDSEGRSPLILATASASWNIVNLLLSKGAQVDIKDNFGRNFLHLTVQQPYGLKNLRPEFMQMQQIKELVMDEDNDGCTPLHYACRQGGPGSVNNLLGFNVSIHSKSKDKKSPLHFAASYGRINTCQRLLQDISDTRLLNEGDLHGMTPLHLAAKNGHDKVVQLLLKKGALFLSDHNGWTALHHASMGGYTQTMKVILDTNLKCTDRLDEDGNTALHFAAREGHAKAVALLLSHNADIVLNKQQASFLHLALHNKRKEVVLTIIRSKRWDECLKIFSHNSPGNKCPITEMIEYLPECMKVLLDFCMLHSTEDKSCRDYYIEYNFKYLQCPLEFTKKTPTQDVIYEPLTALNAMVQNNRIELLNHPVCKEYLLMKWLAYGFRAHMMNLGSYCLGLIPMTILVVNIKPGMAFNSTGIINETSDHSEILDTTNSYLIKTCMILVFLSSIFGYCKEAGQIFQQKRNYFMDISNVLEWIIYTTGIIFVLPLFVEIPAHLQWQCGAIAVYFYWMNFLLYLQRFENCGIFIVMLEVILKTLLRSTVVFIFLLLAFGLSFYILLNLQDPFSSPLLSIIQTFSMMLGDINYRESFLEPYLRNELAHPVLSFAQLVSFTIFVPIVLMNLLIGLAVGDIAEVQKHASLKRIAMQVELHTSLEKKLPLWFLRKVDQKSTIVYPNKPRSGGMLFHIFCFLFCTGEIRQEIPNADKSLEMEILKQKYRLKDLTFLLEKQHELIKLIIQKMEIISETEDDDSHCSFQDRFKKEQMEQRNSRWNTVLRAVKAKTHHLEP
Description: After centrifugation, a pellet of cells was formed in the bottom of the tube separating them from the supernatant solution.
as §2

human TRPV1 [4] = target: T1, human TRPV1; experiment: FLIPR Ca2+ assay, reduction of L-Menthol activation of TRPV1
Description: To determine whether TRPV1 was activated, the intracellular calcium ion (Ca^+2) levels from cells transfected with the TRPV1 receptor gene was measured. HEK-239 cells stably transfected with human TRPV1 were grown in 15 ml growth medium [high glucose DMEM (Dulbecco's Modification of Eagle's Medium) supplemented with 10% FBS (fetal bovine serum), 100 g/ml Penicillin/streptomycin, 100 g/ml G418] in a 75 Cm2 flask for 3 days at 33° C. in a mammalian cell culture incubator set at 5% CO2. Cells were detached with addition of 10 ml of PBS (phosphate buffered saline) by hand shaking gently. Cells were transferred to a 50 ml tube and centrifuged at 850 rpm for 3 minutes to remove PBS. After centrifugation, a pellet of cells formed in the bottom of the tube separating them from the supernatant solution. The supernatant was discarded and the cell pellet suspended in 1 ml of fresh growth medium to which 5 μl (12.5 g) of Fluo-4 AM (Molecular Probes, Inc., Eugene, Oreg.) calcium indicator was added and incubated for 30 minutes with gentle shaking.
The pelleted cells were re-suspended in 10 ml assay buffer and 90 μl aliquots (˜50,000 cells) per well delivered to a 96-well assay plate containing 10 μl of test compounds (1 mM in assay buffer, final concentration 100 μM) or buffer control and incubated at room temperature for 30 minutes. After 30 minutes, the plate was placed into a fluorometric imaging plate reader (FLIPR384 from Molecular Devices) and basal fluorescence recorded (excitation wave length 488 nm and emission wave length 510 nm). Then 20 μl of the compound being tested as a TRPV1 receptor activator was added and fluorescence recorded. […] It may be no difference (no effect), or negative (means antagonist or desensitizer) or positive (enhancer, also known as positive allosteric modulator). […] To determine if a compound was an antagonist or a desensitizer, the direct effect of a test compound was determined. For determining the direct effect of test compounds on TRPV1, 100 μl aliquots (˜50,000 cells) of cells prepared as described above were delivered to a 96-well assay plate and basal fluorescence recorded as noted above. Then 20 μl of the compound being tested as a TRPV1 receptor activator was added and fluorescence recorded. If any increase in fluorescence over background was noted, then the compound was considered an agonist. The agonist activity was expressed relative to that observed with a benchmark agonist such as 350 nM Capsaicin for TRPV1.
100 μM of antagonist was tested against 1 mM of L-Menthol to determine the level of reduced TRPV1 receptor activation by L-Menthol. Each antagonist compound was run with 1 mM of L-Menthol as a control and the antagonist activity of each compound was determined by comparing the Ca^2+ levels of the control with the antagonist compound being tested.

human TRPA1 [5] = target: T2, human TRPA1; experiment: FLIPR Ca2+ assay, block of AITC activation of TRPA1; format: cell-based; parameters: expressed in transfected cells
Description: Intracellular Ca^++ levels were measured using cell based assays as described for EXAMPLES 1, 2, and 3.

human TRPA1 [6] = target: T2, human TRPA1; experiment: FLIPR Ca2+ assay, reduction of L-Menthol activation of TRPA1
Description: In order to determine whether TRPA1 is activated, the intracellular calcium ion (Ca^2+) level from transfected cells with the TRPA1 receptor gene was measured. HEK-2 cells stably transfected with human TRPA1 were grown in 15 ml growth medium [high glucose DMEM (Dulbecco's Modification of Eagle's Medium) supplemented with 10% FBS (fetal bovine serum), 100 μg/ml Penicillin/streptomycin, 100 μg/ml G418] in a 75 Cm^2 flask for 3 days at 37° C. in a mammalian cell culture incubator set at 5% CO2. Cells were detached with addition of 10 ml of PBS (phosphate buffered saline) by hand shaking gently and transferred to a 50 ml tube and centrifuged at 850 rpm for 3 minutes to remove PBS. After centrifugation, a pellet of cells was formed in the bottom of the tube separating them from the supernatant solution. […] Fluo-4 is a fluorescent dye used for quantifying cellular Ca^2+ concentrations in the 100 nM to 1 μM range.
The pelleted cells were re-suspended in 10 ml assay buffer and 90 μl aliquots (˜50,000 cells) per well delivered to a 96-well assay plate containing 10 μl of test compounds (1 mM in assay buffer, final concentration 100 μM) or buffer control and incubated at room temperature for 30 minutes. After 30 minutes, the plate was placed into a fluorometric imaging plate reader (FLIPR384 from Molecular Devices) and basal fluorescence recorded (excitation wave length 488 nm and emission wave length 510 nm). Then 20 μl of the molecule being tested as a TRPA1 antagonist was added and fluorescence recorded. For determining the direct effect of test compounds on TRPA1, fluorescence was measured immediately after addition of each compound.
To determine if a compound was an antagonist or a desensitizer the direct effect of a test compound was determined. For determining the direct effect of test compounds on TRPA1 receptor activation, 100 μl aliquots (˜50,000 cells) of cells prepared as described above were delivered to a 96-well assay plate and basal fluorescence recorded as noted above. Then 20 μl of the compound being tested as a TRPA1 activator was added and fluorescence recorded. If any increase in fluorescence over background was noted, then the compound was considered an agonist.

[7] = Trained sensory panel, burn sensation after brushing with menthol dentifrice; format: in vivo, human; parameters: key: 0 = no burning to 60 = highest intensity; 7.5 difference = significant; conditions: scale 0-60
Description: For EXAMPLES 6 and 7 sensory evaluation studies of menthol and hydrogen peroxide activity were conducted using a methodology patterned after the techniques described in M. C. Meilgaard, et al., Sensory Evaluation Techniques, 4th Ed. (2007). In one study, a panel of 8-15 trained sensory experts evaluated the menthol or peroxide sensations experienced after brushing with a dentifrice containing the menthol or hydrogen peroxide and the respective TRPA1 or TRPV1 antagonists. Panelists brushed teeth with 1.5 grams of a dentifrice (containing coolant) or control (no coolant) and then expectorated. After brush expectoration, panelists evaluated the burn intensity, assigning a number between 0 (no burning) to 60 ([…]). After rinse expectoration, panelists evaluated burning intensity according to the same 0 to 60 scale. Evaluations were conducted at 5, 15, 30, 45, 60 minute, etc. time points. At each evaluation, panelists were instructed to breathe in through pursed lips and evaluate overall burning sensation. In this test, a numerical score difference from the control of 7.5 indicates user significant differences or definite reduction in burning at the specified time point. Measures between 4.0 to 7.5 indicate a noticeable trend in the specified parameter, which is not statistically significant, but noticeable.
For EXAMPLE 6 (TABLES 8 and 9), a panel of 14 trained sensory experts evaluated the sensory profile experienced after brushing with the dentifrice sample formulations shown in TABLES 6 and 7 containing high levels of menthol followed by rinsing with water. Panelists brushed teeth with 1.5 grams of a test dentifrice (containing high menthol levels) or control (no menthol) for 36 seconds and then expectorated. The dentifrice sample formulations (control and high L-Menthol) are shown below in TABLE 6 (with peppermint flavor) and TABLE 7 (with spearmint flavor). The dentifrices were made using conventional methods and are shown below with component amounts in weight % of total composition. […]
For TABLE 10 all the Samples had the same formulation as Sample E from TABLE 6, except for the Control which lacked menthol. After brushing or mouthwash expectoration, panelists evaluated the burning sensation, assigning a number between 0 (no sensation) to 60 (highest intensity sensation). Evaluations were conducted at 5, 10, 20 and 30 minute time points, following expectoration. At each evaluation, panelists were instructed to breathe in through pursed lips and evaluate overall sensation. In this test, a numerical score of 7.5 indicates a significant user noticeable sensation. Differences less than 7.5, but greater than 5.0 indicate the trending of the data on a specific attribute.

[8] = 400 μM antagonist vs 500 μM hydrogen peroxide
[9] = 100 μM antagonist vs 500 μM hydrogen peroxide
[10] = compound 100 μM against 200 μM hydrogen peroxide, Sets 1-4
[11] = compound 100 μM against 200 μM hydrogen peroxide, Sets 1-4, read-out: % Reduction of Hydrogen Peroxide TRPA1 Activation
[12] = antagonist 100 μM against 1 mM L-Menthol

Compound: Cn1cccc1C=O [1-Methyl-2-pyrole carboxaldehyde]
reduction of hydrogen peroxide activation of TRPV1, in words (human TRPV1 [1]): hydrogen peroxide reduction of TRPV1
% inhibition of TRPV1 activation by 500 uM H2O2 (human TRPV1 [1]; Dose 4000): 79%
% Reduction of Hydrogen Peroxide TRPV1 Activation (human TRPV1 [1]): 79%
Ca++ counts (human TRPV1 [1]; Dose 4000, 500 uM H2O2): 380
% inhibition of TRPV1 activation by 350 nM Capsaicin (human TRPV1 [2]; Dose 4000): 3%
Ca++ counts (human TRPV1 [2]; Dose 4000, 350 nM Capsaicin): 11516
reduction of hydrogen peroxide activation of TRPA1, in words (human TRPA1 [3]): reduced hydrogen peroxide activation of TRPA1
Block of hydrogen peroxide activation of TRPA1 (human TRPA1 [3]; [8]): BLOCK ONLY H2O2/TRPA1
% Reduction of Hydrogen Peroxide TRPA1 Activation (human TRPA1 [3]; antagonist 400 μM against 200 μM hydrogen peroxide): 42%

Compound: CC/C=C/CC1CCCC1=O (centres unmarked) [Jasminone B]
% inhibition of TRPV1 activation by 500 uM H2O2 (human TRPV1 [1]; Dose 4000): 51%
% Reduction of Hydrogen Peroxide TRPV1 Activation (human TRPV1 [1]): 51%
Ca++ counts (human TRPV1 [1]; Dose 4000, 500 uM H2O2): 903
% inhibition of TRPV1 activation by 350 nM Capsaicin (human TRPV1 [2]; Dose 4000): 2%
Ca++ counts (human TRPV1 [2]; Dose 4000, 350 nM Capsaicin): 11635

Compound: CC1=CC(=O)C(C(C)C)CC1 [L-Piperiton]
% inhibition of TRPV1 activation by 500 uM H2O2 (human TRPV1 [1]; Dose 1000): 58%
Ca++ counts (human TRPV1 [1]; Dose 1000, 500 uM H2O2): 361
% inhibition of TRPV1 activation by 350 nM Capsaicin (human TRPV1 [2]; Dose 1000): 12%
Ca++ counts (human TRPV1 [2]; Dose 1000, 350 nM Capsaicin): 13225

Compound: COC(=O)c1ccccc1N(C)C [Methyl N,N-Dimethylanthranilate]
inhibition at 100 µM (human TRPV1 [1]): 60%
Ca++ counts (human TRPV1 [1]; Dose 1000, 500 uM H2O2): 451
Ca++ counts (human TRPV1 [2]; Dose 1000, 350 nM Capsaicin): 15329

Compound: CCCCCC=CCC1CCCC1=O (centres unmarked) [Octenyl Cyclopentanone]
% inhibition of TRPV1 activation by 500 uM H2O2 (human TRPV1 [1]; Dose 4000): 50%
% Reduction of Hydrogen Peroxide TRPV1 Activation (human TRPV1 [1]): 50%
Ca++ counts (human TRPV1 [1]; Dose 4000, 500 uM H2O2): 922
% inhibition of TRPV1 activation by 350 nM Capsaicin (human TRPV1 [2]; Dose 4000): 1%
Ca++ counts (human TRPV1 [2]; Dose 4000, 350 nM Capsaicin): 9378

Compound: CC(=O)OC1=C(C)OC(C)C1=O (centres unmarked) [Strawberry Furanone Acetate, 4-Acetoxy-2,5-dimethyl-3(2H)-furanone]
reduction of hydrogen peroxide activation of TRPV1, in words (human TRPV1 [1]): hydrogen peroxide reduction of TRPV1
inhibition at 100 µM (human TRPV1 [1]): 60%
Ca++ counts (human TRPV1 [1]; Dose 1000, 500 uM H2O2): 451
Ca++ counts (human TRPV1 [2]; Dose 1000, 350 nM Capsaicin): 14578
reduction of hydrogen peroxide activation of TRPA1, in words (human TRPA1 [3]): reduced hydrogen peroxide activation of TRPA1
Block of hydrogen peroxide activation of TRPA1 (human TRPA1 [3]; [8]): BLOCK ONLY H2O2/TRPA1
inhibition at 400 µM (human TRPA1 [3]; antagonist 400 μM against 200 μM hydrogen peroxide, read-out: % Reduction of Hydrogen Peroxide TRPA1 Activation): 63%

Compound: CC(C)=CC1CC(C)CCO1 (centres unmarked) [Tetrahydro-4-methyl-2-(2-methyl-1-propenyl)-2H pyran]
inhibition at 400 µM (human TRPV1 [1]): 53%
Ca++ counts (human TRPV1 [1]; Dose 4000, 500 uM H2O2): 866
Ca++ counts (human TRPV1 [2]; Dose 4000, 350 nM Capsaicin): 11041

Compound: O=C(CCc1ccc(O)cc1)c1c(O)cc(O)cc1O [phloretin]
Average Ca2+ Counts (human TRPV1 [4]; [12]): 4616.5 Counts
inhibition at 100 µM (human TRPV1 [4]; read-out: % Reduction of L-Menthol TRPV1 Activation): 27.9%
Block of AITC activation of TRPA1 (human TRPA1 [5]; 100 μM antagonist): Block menthol, H2O2, and AITC on TRPA1
Block of L-Menthol activation of TRPA1 (human TRPA1 [6]; 100 μM antagonist vs 1 mM L-Menthol): Block menthol, H2O2, and AITC on TRPA1
Block of hydrogen peroxide activation of TRPA1 (human TRPA1 [3]; [9]): Block menthol, H2O2, and AITC on TRPA1
Average Ca++ Counts (human TRPA1 [3]; [10]): 215.0 Counts
inhibition at 100 µM (human TRPA1 [3]; [11]): 96.9%

Compound: CCCCCCCC1CC(C)OC1=O (stereo not drawn) [α-heptyl-γ-valerolactone]
Burning Sensation Rating ([7]; 5 Min After Rinse, dentifrice Sample E (1% menthol) with antagonist levels as E42): 13.8
Burning Sensation Rating ([7]; 10 Min After Rinse, dentifrice Sample E (1% menthol) with antagonist levels as E42): 1.3
Burning Sensation Rating ([7]; 20 Min After Rinse, dentifrice Sample E (1% menthol) with antagonist levels as E42): 0.0
Burning Sensation Rating ([7]; 30 Min After Rinse, dentifrice Sample E (1% menthol) with antagonist levels as E42): 0.0
Burning Sensation Rating ([7]; After Expectoration, dentifrice Sample E (1% added menthol) with Apritone 200 ppm, Dihydrojasmone 6 ppm, Isobornyl Isobutyrate 100 ppm, α-heptyl-γ-valerolactone 100 ppm as named): 25.4
Burning Sensation Rating ([7]; After Rinse, dentifrice Sample E (1% menthol) with antagonist levels as E42): 21.5

Compound: manganese chloride
% Reduction of L-Menthol TRPV1 Activation (human TRPV1 [4]; [12]): 38.7%
Average Ca2+ Counts (human TRPV1 [4]; [12]): 3922.0 Counts
Block of AITC activation of TRPA1 (human TRPA1 [5]): Block menthol, H2O2, and AITC on TRPA1
Block of L-Menthol activation of TRPA1 (human TRPA1 [6]): Block menthol, H2O2, and AITC on TRPA1
Block of hydrogen peroxide activation of TRPA1 (human TRPA1 [3]; [9]): Block menthol, H2O2, and AITC on TRPA1
% Reduction of Hydrogen Peroxide TRPA1 Activation (human TRPA1 [3]; [10]): 59.2%
Average Ca++ Counts (human TRPA1 [3]; [10]): 2872.5 Counts

Further lines, results first:

inhibition at 100 µM (human TRPV1 [1]): 58%
Ca++ counts (human TRPV1 [1]; Dose 1000, 500 uM H2O2): 474
Ca++ counts (human TRPV1 [2]; Dose 1000, 350 nM Capsaicin): 14878
Compound: CCOc1nccnc1CC [2-Ethoxy-3-ethylpyrazine]

inhibition at 400 µM (human TRPV1 [1]): 79%
Ca++ counts (human TRPV1 [1]; Dose 4000, 500 uM H2O2): 380
Ca++ counts (human TRPV1 [2]; Dose 4000, 350 nM Capsaicin): 11278
Compound: CCC(C)COC(=O)CC(C)C (centres unmarked) [2-Methylbutyl isovalerate]

inhibition at 400 µM (human TRPV1 [1]): 90%
Ca++ counts (human TRPV1 [1]; Dose 4000, 500 uM H2O2): 181
Ca++ counts (human TRPV1 [2]; Dose 4000, 350 nM Capsaicin): 12109
Compound: CCCCCC(CC)OC(C)=O (centres unmarked) [3-Octyl Acetate]

inhibition at 400 µM (human TRPV1 [1]): 58%
Ca++ counts (human TRPV1 [1]; Dose 4000, 500 uM H2O2): 774
Ca++ counts (human TRPV1 [2]; Dose 4000, 350 nM Capsaicin): 11278
Compound: CCCCOC(=O)C(C)C [Butyl Isobutyrate]

inhibition at 100 µM (human TRPV1 [1]): 62%
Ca++ counts (human TRPV1 [1]; Dose 1000, 500 uM H2O2): 627
Ca++ counts (human TRPV1 [2]; Dose 1000, 350 nM Capsaicin): 14728
Block of hydrogen peroxide activation of TRPA1 (human TRPA1 [3]; [9]): BLOCK ONLY H2O2/TRPA1
Average Ca++ Counts (human TRPA1 [3]; [10]): 6313.0 Counts
inhibition at 100 µM (human TRPA1 [3]; [11]): 40.4%
Compound: CC(CC=O)CCCC(C)(C)O (centres unmarked) [Hydroxycitronellal]

inhibition at 400 µM (human TRPV1 [1]): 63%
Ca++ counts (human TRPV1 [1]; Dose 4000, 500 uM H2O2): 715
Ca++ counts (human TRPV1 [2]; Dose 4000, 350 nM Capsaicin): 11278
Compound: CCCN(CCC)CCC [Tripropylamine]
